These results are taken from publication PMC10008561 (Nature Communications, 2023).

Series [1] deals with T1, human KOR (Gi3) (Homo sapiens, UniProt P41145, D266A).
T1 construct: expressed in transfected cells; host or cells: HEK293T
The series can be described thus: cell-based. The conditions noted are these: HEK-293T.

In series [2] the target is T2, human KOR (Gi3) (Homo sapiens, UniProt P41145, D334A).
T2 construct: expressed in transfected cells; host or cells: HEK293T
The series can be described thus: cell-based. The conditions noted are these: HEK-293T.

The target in series [3] is T3, human KOR (Gi3) (Homo sapiens, UniProt P41145, G319L).
T3 construct: expressed in transfected cells; host or cells: HEK293T
T3 sequence (P41145 whole entry G319L): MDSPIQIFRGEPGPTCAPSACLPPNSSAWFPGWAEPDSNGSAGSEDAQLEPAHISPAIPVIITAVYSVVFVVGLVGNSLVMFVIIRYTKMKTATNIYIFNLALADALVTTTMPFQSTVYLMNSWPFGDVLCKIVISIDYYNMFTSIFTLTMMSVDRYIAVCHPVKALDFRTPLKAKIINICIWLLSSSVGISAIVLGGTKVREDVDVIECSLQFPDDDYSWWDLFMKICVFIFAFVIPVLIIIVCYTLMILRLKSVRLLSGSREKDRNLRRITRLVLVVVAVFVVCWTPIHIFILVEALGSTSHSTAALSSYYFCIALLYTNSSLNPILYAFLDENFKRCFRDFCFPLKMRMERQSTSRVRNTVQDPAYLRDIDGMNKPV
The series can be described thus: cell-based. The conditions noted are these: HEK-293T.

The target in series [4] is T4, human KOR (Gi3) (Homo sapiens, UniProt P41145, K200A).
T4 construct: expressed in transfected cells; host or cells: HEK293T
T4 sequence (P41145 whole entry K200A): as the sequence (P41145 whole entry G319L) above, with K200A, L319G counted along it
The series can be described thus: cell-based. Conditions: HEK-293T.

For series [5], the target named is T5, human KOR (Gi3) (Homo sapiens, UniProt P41145, K227A).
T5 construct: expressed in transfected cells; host or cells: HEK293T
T5 sequence (P41145 whole entry K227A): as the sequence (P41145 whole entry G319L) above, with K227A, L319G counted along it
In words: cell-based. Conditions: HEK-293T.

The target of series [6] is T6, human KOR (Gi3) (Homo sapiens, UniProt P41145, L253A).
T6 construct: expressed in transfected cells; host or cells: HEK293T
T6 sequence (P41145 whole entry L253A): as the sequence (P41145 whole entry G319L) above, with L253A, L319G counted along it
The series can be described thus: cell-based. The conditions noted are these: HEK-293T.

For series [7], the target named is T7, human KOR (Gi3) (Homo sapiens, UniProt P41145, N141A).
T7 construct: expressed in transfected cells; host or cells: HEK293T
T7 sequence (P41145 whole entry N141A): as the sequence (P41145 whole entry G319L) above, with N141A, L319G counted along it
In words: cell-based. Conditions: HEK-293T.

The target of series [8] is T8, human KOR (Gi3) (Homo sapiens, UniProt P41145, R274A).
T8 construct: expressed in transfected cells; host or cells: HEK293T
T8 sequence (P41145 whole entry R274A): as the sequence (P41145 whole entry G319L) above, with R274A, L319G counted along it
In words: cell-based. Conditions: HEK-293T.

The target in series [9] is T9, human KOR (Gi3) (Homo sapiens, UniProt P41145, Y320L).
T9 construct: expressed in transfected cells; host or cells: HEK293T
T9 sequence (P41145 whole entry Y320L): as the sequence (P41145 whole entry G319L) above, with L319G, Y320L counted along it
The series can be described thus: cell-based. The conditions noted are these: HEK-293T.

Series [10] deals with KOR. In words: Bias factor, Gz vs β-arrestin2 (BRET), U50,488 as reference. The series is classed as cell-based, human. On the technique in general: Bioluminescence resonance energy transfer reports proximity on the nanometre scale.
In series [11] the test system is KOR. Conditions: ERK activation versus p38 activation; cited from earlier work.
Series [12] concerns KOR. On the set-up: method as in Cao et al., ACS Chem Neuro 2020. Conditions: ref Cao et al., ACS Chem Neuro 2020; cited from earlier work.
For series [13] the following is noted: ref Liu et al., Neuropsychopharmacology, 2018, Abraham et al., cited from earlier work.

Read-outs that look alike come from different tables or passages of the source.

T1 sequence (P41145 whole entry D266A): as the sequence (P41145 whole entry G319L) above, with D266A, L319G counted along it
T2 sequence (P41145 whole entry D334A): as the sequence (P41145 whole entry G319L) above, with L319G, D334A counted along it

As for `CN(C(=O)/C=C/c1ccoc1)[C@@H]1CC[C@@]2(O)[C@H]3Cc4ccc(O)c5c4[C@@]2(CCN3CC2CC2)[C@H]1O5` [Nalfurafine, nalfurafine], the maximal effect (Emax) was determined as 105% in [1]; 101% in series [2]; 106% in series [3]; 93.1% in series [4]; 106% in [5]; 104% in series [6]. The Emax in series [7] came out at 107%; in series [8], 98.8%; in [9] it was 66.9%. Further, the “bias factor towards Gz protein” value in series [10] was 4.8. The “bias factor toward G protein signaling” value in series [11] is recorded as 200; in series [12], 4.5. The side effects entry in series [13] (high dose 20-50 μg/Kg) was “starts causing motor incoordination, sedation, and aversion effects”. Besides, in series [13] (low dose 2.5-20 μg/Kg), the “side effects (dysphoria, sedation, hallucinations)” value is given as “does not produce typical”.

As a reminder, the Emax is the greatest response seen or fitted, relative to the assay's reference.
